Values of other authors as cited in US20140066504A1, “ANALOGS AND PRODRUGS OF BUMETANIDE; COMPOSITIONS AND METHODS OF USE” (priority 2012, published 2014).

Columns and labels:
NKCC1 = molecular target: T1, NKCC1 (Homo sapiens, UniProt P55011); conditions: for affinity for NKCC1 over KCC2: selectivity
T1 sequence (P55011 1-1212): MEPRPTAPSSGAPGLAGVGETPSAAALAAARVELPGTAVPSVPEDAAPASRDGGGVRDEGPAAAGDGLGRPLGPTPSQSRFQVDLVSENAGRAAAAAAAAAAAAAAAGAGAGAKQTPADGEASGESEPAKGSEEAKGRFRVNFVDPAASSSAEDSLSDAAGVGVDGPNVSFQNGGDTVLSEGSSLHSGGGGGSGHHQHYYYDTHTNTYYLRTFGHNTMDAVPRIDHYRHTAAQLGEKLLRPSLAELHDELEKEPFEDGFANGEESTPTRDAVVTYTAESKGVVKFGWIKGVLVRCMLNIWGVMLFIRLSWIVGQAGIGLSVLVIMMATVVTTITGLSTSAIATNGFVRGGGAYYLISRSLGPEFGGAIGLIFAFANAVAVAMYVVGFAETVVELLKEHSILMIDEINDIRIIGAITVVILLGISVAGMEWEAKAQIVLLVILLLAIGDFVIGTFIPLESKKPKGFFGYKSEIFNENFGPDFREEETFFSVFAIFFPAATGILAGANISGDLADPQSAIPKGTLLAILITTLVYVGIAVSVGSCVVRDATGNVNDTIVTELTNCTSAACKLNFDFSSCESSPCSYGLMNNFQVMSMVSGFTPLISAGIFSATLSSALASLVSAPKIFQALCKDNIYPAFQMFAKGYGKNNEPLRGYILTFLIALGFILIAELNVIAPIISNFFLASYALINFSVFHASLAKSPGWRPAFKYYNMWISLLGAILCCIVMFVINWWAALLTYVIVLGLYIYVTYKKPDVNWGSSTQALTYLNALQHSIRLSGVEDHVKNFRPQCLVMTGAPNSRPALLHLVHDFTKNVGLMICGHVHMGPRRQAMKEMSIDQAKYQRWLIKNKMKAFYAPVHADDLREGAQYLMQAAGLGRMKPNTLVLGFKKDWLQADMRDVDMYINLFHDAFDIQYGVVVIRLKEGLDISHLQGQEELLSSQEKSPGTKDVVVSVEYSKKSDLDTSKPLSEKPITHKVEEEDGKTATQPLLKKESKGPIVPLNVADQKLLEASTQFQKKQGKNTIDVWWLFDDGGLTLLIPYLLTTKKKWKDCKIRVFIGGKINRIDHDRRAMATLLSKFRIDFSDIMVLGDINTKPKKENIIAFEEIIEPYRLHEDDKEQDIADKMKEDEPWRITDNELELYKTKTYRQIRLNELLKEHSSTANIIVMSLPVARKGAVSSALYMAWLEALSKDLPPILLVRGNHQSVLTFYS

[1] = test system: adults with refractory epilepsy
rat hippocampal slices = conditions: afterdischarge, high-K+, zero-magnesium, 4-AP, bicuculline, zero-calcium models
neocortex = conditions: intravenously administered, human patients
[2] = test system: audiogenic seizure-prone rats; conditions: audiogenic seizure-prone animals
primate cortex = conditions: relative to furosemide

| Structure (SMILES) | affinity for NKCC1 over KCC2 (NKCC1) | effect on seizure frequency [1] | effect on epileptiform activity (rat hippocampal slices) | effect on interictal spiking and stimulation-evoked afterdischarges (neocortex) | effect on sound-triggered seizures [2] | effect on conditioned anxiety (rat models of anxiety) | effect on activity-driven glial cell swelling (glial cell) | NKCC1 antagonist potency and specificity relative to furosemide (NKCC1) | effect on kainic acid status (rats) | blocking epileptiform activity (focal bicuculline or 4-AP) and stimulation-evoked afterdischarges (primate cortex) |
| --- | --- | --- | --- | --- | --- | --- | --- | --- | --- | --- |
| NS(=O)(=O)c1cc(C(=O)O)c(NCc2ccco2)cc1Cl [furosemide] | significantly greater affinity for NKCC1 over KCC2 | significantly reduced seizure frequency | block epileptiform activity | blocked spontaneously occurring interictal spiking and stimulation-evoked afterdischarges | prevented sound-triggered seizures | significantly reduce conditioned anxiety | block activity-driven glial cell swelling |  |  |  |
| CCCCNc1cc(C(=O)O)cc(S(N)(=O)=O)c1Oc1ccccc1 [bumetanide] | significantly greater affinity for NKCC1 over KCC2 |  |  |  | more potent than furosemide | significantly reduce conditioned anxiety |  | more potent and specific antagonist than furosemide | more potent than furosemide | more potent than furosemide |
